Experiment [1] concerns the target T1, human insuline receptor (Ins-R) (Homo sapiens, UniProt P06213).
T1 construct: GST-tagged recombinant kinase domain of the human insuline receptor; GST; purchased ProQinase, Freiburg, Germany; host or cells: SF-9 cells
As to the kind of experiment: InsR HTRF assay (selectivity vs. Tie2 assay 2). In kind it is biochemical. Conditions: IC50 assay 4/IC50 assay 2. How it is done: Inhibitory activity of compounds against the kinase activity of the insulin receptor was quantified employing the Ins-R HTRF assay as described in the following paragraphs.
GST-tagged recombinant kinase domain of the human insuline receptor (Ins-R, purchase from ProQinase, Freiburg, Germany) expressed in SF-9 cells was used as kinase. As substrate for the kinase reaction biotinylated poly-(Glu,Tyr) (Cis biointernational, France) was used.
Ins-R was incubated for 20 min at 22° C. in the presence of different concentrations of test compounds in 5 μl assay buffer [50 mM Hepes/NaOH pH 7, 15 mM MnCl2, 1 mM dithiothreitol, 0.1 μM sodium ortho-vanadate, 0.015% (v/v) PEG20000, 10 μM adenosine-tri-phosphate (ATP), 0.3 μg/ml substrate, 1% (v/v) dimethylsulfoxide]. The concentration of Ins-R was adjusted depending of the activity of the enzyme lot and was chosen appropriate to have the assay in the linear range, typical concentrations were in the range of 10 pg/μL. The reaction was stopped by the addition of 5 μl of a solution of HTRF detection reagents (0.1 μM streptavidine-XLent and 1 nM PT66-Eu-Chelate, an europium-chelate labelled anti-phospho-tyrosine antibody from Perkin Elmer) in an aqueous EDTA-solution (80 mM EDTA, 0.2% (w/v) bovine serum albumin in 50 mM HEPES/NaOH pH 7.0).
The resulting mixture was incubated 1 h at 22° C. to allow the binding of the biotinylated phosphorylated peptide to the streptavidine-XLent and the PT66-Eu-Chelate. Subsequently the amount of phosphorylated substrate was evaluated by measurement of the resonance energy transfer from the PT66-Eu-Chelate to the streptavidine-XLent. Therefore, the fluorescence emissions at 620 nm and 665 nm after excitation at 350 nm was measured in a HTRF reader, e.g. a Rubystar (BMG Labtechnologies, Offenburg, Germany) or a ViewLux (Perkin-Elmer). The ratio of the emissions at 665 nm and at […] was taken as the measure for the amount of phosphorylated substrate. The data were normalised (enzyme reaction without inhibitor=0% inhibition, all other assay components but no enzyme=100% inhibition) and IC50 values were calculated by a 4 parameter fit using an inhouse software.
Background: In TR-FRET formats the signal depends on donor and acceptor labels being close together.

The target in experiment [2] is Tie2 (Homo sapiens, UniProt Q02763). As to the kind of experiment: Tie2 ELISA assay (cellular Tie2 autophosphorylation). The arrangement: expressed in transfected cells; host or cells: CHO (CHO Tie2/DHFR). In kind it is cell-based. Conditions: CHO cells stably transfected with Tie2, stimulated by angiopoietin-2; Tie2 autophosphorylation by sandwich-ELISA; read-out: Tie 2 activity (assay 1). How it is done:
Cellular activity of compounds of the present invention as inhibitors of Tie2 kinase activity was measured employing a Tie2 ELISA assay as described in the following paragraphs. Herein CHO cell-cultures, which are stably transfected by known techniques with Tie2 using DHFR deficiency as selection marker, are stimulated by angiopoietin-2. The specific autophosphorylation of Tie2 receptors is quantified with a sandwich-ELISA using anti-Tie2 antibodies for catch and anti-phosphotyrosine antibodies coupled to HRP for detection.
• 96 well tissue culture plate, sterile, Greiner • 96 well FluoroNunc plate MaxiSorp Surface C, Nunc • 96 well plate polypropylene for compound dilution in DMSO • CHO Tie2/DHFR (transfected cells) • PBS−; PBS++, DMSO • MEM alpha Medium with Glutamax-I without Ribonucleosides and Deoxyribonucleosides (Gibco #32561-029) • with 10% FCS after dialysis! and 1% PenStrep • Lysis buffer: 1 Tablet “Complete” protease inhibitor • 1 cap Vanadate (1 mL>40 mg/mL; working solution 2 mM) • ad 50 mL with Duschl-Puffer • pH 7.6 • Anti-Tie2-antibody 1:425 in Coating Buffer pH 9.6 • Stock solution: 1.275 mg/mL>working.: 3 μg/mL • PBST: 2 bottles PBS (10×)+10 ml Tween, fill up with VE-water • RotiBlock 1:10 in VE-water • Anti-Phosphotyrosine HRP-Conjugated 1:10000 in 3% TopBlock • 3% TopBlock in PBST • BM Chemiluminescence ELISA Substrate (POD) • solution B 1:100 solution A • SF9 cell culture medium • Ang2-Fc in SF9 cell culture medium
• Dispense 5×10^4 cells/well/98 μL in 96 well tissue culture plate • Incubate at 37° C./5% CO2 • After 24 h add compounds according to desired concentrations • Add also to control and stimulated values without compounds 2 μL DMSO • And mix for a few min at room temperature • Add 100 μL Ang2-Fc to all wells except control, which receives insect medium • Incubate 20 min at 37° C. • Wash 3× with PBS++ • Add 100 μl Lysis buffer/well and shake a couple of min at room temperature • Store lysates at […] before utilizing for the ELISA
• Coat 96 well FluoroNunc Plate MaxiSorp Surface C with anti-Tie2 mAb 1:425 in Coating buffer pH 9.6; 100 μL/well overnight at 4° C. • Wash 2× with PBST • Block plates with 250 μL/well RotiBlock 1:10 in VE-water • Incubate for 2 h at room temperature or overnight at 4° C. shaking • Wash 2× in PBST • Add thawed lysates to wells and incubate overnight shaking at 4° C. • Wash 2× with PBST • Add 100 μL/well anti-Phosphotyrosine HRP-Conjugated 1:10000 in 3% TopBlock (3% TopBlock in PBST) and incubate overnight under shaking • Wash 6× with PBST • Add 100 μL/well BM Chemiluminescence ELISA Substrate (POD) solutions 1 und 2 (1:100) • Determine luminescence with the LumiCount. Assay 2: Tie-2-Kinase HTRF-Assay without Kinase Preactivation
A general note: ELISA stands for enzyme-linked immunosorbent assay.

The source of these data is patent US20090062273A1, “3-H-pyrazolopyridines and salts thereof, pharmaceutical compositions comprising same, methods of preparing same and uses of same” (priority 2006, published 2009).

The structures appear in SMILES notation. pIC50: −log10 of the molar value.

Chain of Tie2 (Q02763 23-1124, species assumed): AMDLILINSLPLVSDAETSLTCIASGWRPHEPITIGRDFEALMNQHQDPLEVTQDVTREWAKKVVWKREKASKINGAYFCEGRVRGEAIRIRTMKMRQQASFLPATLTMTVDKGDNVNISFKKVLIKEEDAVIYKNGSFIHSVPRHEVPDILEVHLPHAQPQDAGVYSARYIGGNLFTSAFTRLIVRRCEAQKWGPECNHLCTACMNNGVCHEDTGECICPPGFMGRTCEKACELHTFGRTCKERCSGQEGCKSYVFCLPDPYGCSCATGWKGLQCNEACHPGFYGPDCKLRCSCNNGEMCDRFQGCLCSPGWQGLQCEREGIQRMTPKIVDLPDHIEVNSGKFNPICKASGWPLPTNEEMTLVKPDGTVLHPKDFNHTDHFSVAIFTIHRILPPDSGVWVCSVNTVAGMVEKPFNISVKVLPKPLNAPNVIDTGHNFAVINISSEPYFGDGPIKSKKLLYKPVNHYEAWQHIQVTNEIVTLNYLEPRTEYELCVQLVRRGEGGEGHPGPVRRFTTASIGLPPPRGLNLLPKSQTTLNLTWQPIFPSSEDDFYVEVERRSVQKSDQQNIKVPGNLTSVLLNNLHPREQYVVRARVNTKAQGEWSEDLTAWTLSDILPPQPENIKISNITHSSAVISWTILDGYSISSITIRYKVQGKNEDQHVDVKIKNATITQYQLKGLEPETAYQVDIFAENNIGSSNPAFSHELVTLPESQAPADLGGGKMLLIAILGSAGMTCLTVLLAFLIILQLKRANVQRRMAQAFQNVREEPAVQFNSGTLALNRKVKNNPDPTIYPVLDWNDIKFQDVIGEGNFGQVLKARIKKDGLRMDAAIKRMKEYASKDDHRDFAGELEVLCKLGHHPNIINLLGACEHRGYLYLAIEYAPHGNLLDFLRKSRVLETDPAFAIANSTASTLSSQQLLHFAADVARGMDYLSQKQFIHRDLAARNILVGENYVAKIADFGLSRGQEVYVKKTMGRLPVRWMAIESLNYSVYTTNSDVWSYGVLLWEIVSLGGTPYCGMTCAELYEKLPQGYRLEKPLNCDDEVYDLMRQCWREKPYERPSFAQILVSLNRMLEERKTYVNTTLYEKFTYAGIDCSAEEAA
T1 sequence (P06213 1023-1298 limits assumed): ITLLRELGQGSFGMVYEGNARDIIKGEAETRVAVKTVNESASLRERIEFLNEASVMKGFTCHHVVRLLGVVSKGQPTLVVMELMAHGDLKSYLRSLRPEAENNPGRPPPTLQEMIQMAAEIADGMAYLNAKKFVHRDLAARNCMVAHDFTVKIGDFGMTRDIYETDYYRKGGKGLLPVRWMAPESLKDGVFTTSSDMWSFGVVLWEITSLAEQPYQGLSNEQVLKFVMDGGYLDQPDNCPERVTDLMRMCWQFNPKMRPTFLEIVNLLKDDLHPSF

In the case of `Cn1ncc2c(-c3ccc(NC(=O)Nc4cc(C(F)(F)F)ccc4F)cc3)cncc21` [Example 1.2, 1-(2-Fluoro-5-trifluoromethyl-phenyl)-3-[4-(1-methyl-1H-pyrazolo[3,4-c]pyridin-4-yl)-phenyl]-urea], the “Selectivity vs. InsR” value in experiment [1] was greater than 50fold. Also, the pIC50 in experiment [2] is greater than 6.30.

Take `Cc1ccc(F)c(NC(=O)Nc2ccc(-c3cncc4c3cnn4C)cc2)c1` [Example 1.3, 1-(2-Fluoro-5-methyl-phenyl)-3-[4-(1-methyl-1H-pyrazolo[3,4-c]pyridin-4-yl)-phenyl]-urea]: the “Selectivity vs. InsR” value in experiment [1] was greater than 50fold. In experiment [2], the pIC50 is greater than 6.30.

Regarding `Cn1ncc2c(-c3ccc(NC(=O)Nc4cccc(C(F)(F)F)c4)cc3)cncc21` [Example 1.4, 1-[4-(1-Methyl-1H-pyrazolo[3,4-c]pyridin-4-yl)-phenyl]-3-(3-trifluoromethyl-phenyl)-urea], in experiment [1], the “Selectivity vs. InsR” value is on record as greater than 50fold. Besides, the pIC50 in experiment [2] was greater than 6.30.

As to `CCc1cccc(NC(=O)Nc2ccc(-c3cncc4c3cnn4C)cc2)c1` [Example 1.5, 1-(3-Ethyl-phenyl)-3-[4-(1-methyl-1H-pyrazolo[3,4-c]pyridin-4-yl)-phenyl]-urea], in experiment [1], the “Selectivity vs. InsR” value is reported as greater than 50fold. Further, the pIC50 in experiment [2] is greater than 6.30.

For `Cn1ncc2c(-c3ccc(NC(=O)Nc4cc(C(F)(F)F)ccn4)cc3)cncc21` [Example 1.9, 1-[4-(1-Methyl-1H-pyrazolo[3,4-c]pyridin-4-yl)-phenyl]-3-(4-trifluoromethyl-pyridin-2-yl)-urea], in experiment [1], the “Selectivity vs. InsR” value is greater than 50fold. The pIC50 in experiment [2] was greater than 6.30.

`Cn1ncc2c(-c3ccc(NC(=O)Nc4cc(C(F)(F)F)ccc4Cl)cc3)cncc21` [Example 1.13, 1-(2-Chloro-5-trifluoromethyl-phenyl)-3-[4-(1-methyl-1H-pyrazolo[3,4-c]pyridin-4-yl)-phenyl]-urea]: the “Selectivity vs. InsR” value in experiment [1] was greater than 50fold. Further, in experiment [2], the pIC50 was greater than 6.30.

In the case of `Cn1ncc2c(-c3ccc(NC(=O)Nc4cccc(C(F)(F)F)c4)c(F)c3)cncc21` [Example 3.1, 1-[2-Fluoro-4-(1-methyl-1H-pyrazolo[3,4-c]pyridin-4-yl)-phenyl]-3-(3-trifluoromethyl-phenyl)-urea], the “Selectivity vs. InsR” value in experiment [1] is greater than 50fold. The pIC50 in experiment [2] is greater than 6.30.

As for `Cc1cc(-c2cncc3c2cnn3C)ccc1NC(=O)Nc1cccc(C(F)(F)F)c1` [Example 4.1, 1-[2-Methyl-4-(1-methyl-1H-pyrazolo[3,4-c]pyridin-4-yl)-phenyl]-3-(3-trifluoromethyl-phenyl)-urea], the “Selectivity vs. InsR” value in experiment [1] was greater than 50fold. Further, the pIC50 in experiment [2] was greater than 6.30.

With `CN(C(=O)Nc1cccc(C(F)(F)F)c1)c1ccc(-c2cncc3c2cnn3C)cc1` [Example 6.1, 1-Methyl-1-[4-(1-methyl-1H-pyrazolo[3,4-c]pyridin-4-yl)-phenyl]-3-(3-trifluoromethyl-phenyl)-urea], the “Selectivity vs. InsR” value in experiment [1] is recorded as greater than 25fold. For the same compound, the pIC50 in experiment [2] is 6.00 to 6.30.

`Cn1ncc2c(-c3ccc(NC(=O)Nc4cc(C(F)(F)F)ccc4F)c(F)c3)cncc21` [Example 6.3, 1-[2-Fluoro-4-(1-methyl-1H-pyrazolo[3,4-c]pyridin-4-yl)-phenyl]-3-(2-fluoro-5-trifluoromethyl-phenyl)-urea]: the “Selectivity vs. InsR” value in experiment [1] is listed as greater than 50fold. Also, in experiment [2], the pIC50 is greater than 6.30.

For `CN1CCN(Cc2ccc(NC(=O)Nc3ccc(-c4cncc5c4cnn5C)cc3)cc2C(F)(F)F)CC1` [Example 6.4, 1-[4-(4-Methyl-piperazin-1-ylmethyl)-3-trifluoromethyl-phenyl]-3-[4-(1-methyl-1H-pyrazolo[3,4-c]pyridin-4-yl)-phenyl]-urea], the “Selectivity vs. InsR” value in experiment [1] is on record as greater than 50fold. In experiment [2], the pIC50 is greater than 6.30.

Consider `O=C(Nc1ccc(-c2cncc3c2cnn3CCO)cc1F)Nc1cc(C(F)(F)F)ccc1F` [Example 8.1, 1-{2-Fluoro-4-[1-(2-hydroxy-ethyl)-1H-pyrazolo[3,4-c]pyridin-4-yl]-phenyl}-3-(2-fluoro-5-trifluoromethyl-phenyl)-urea], for which the “Selectivity vs. InsR” value in experiment [1] is recorded as greater than 50fold. For the same compound, the pIC50 in experiment [2] was greater than 6.30.

`O=C(Nc1ccc(-c2cncc3c2cnn3CCO)cc1)Nc1cc(C(F)(F)F)ccc1F` [Example 8.2, 1-(2-Fluoro-5-trifluoromethyl-phenyl)-3-{4-[1-(2-hydroxy-ethyl)-1H-pyrazolo[3,4-c]pyridin-4-yl]-phenyl}-urea]: in experiment [1], the “Selectivity vs. InsR” value is given as greater than 50fold. Also, the pIC50 in experiment [2] was greater than 6.30.

Regarding `O=C(Nc1cccc(C(F)(F)F)c1)Nc1ccc(-c2cncc3c2cnn3CCO)cc1F` [Example 8.5, 1-{2-Fluoro-4-[1-(2-hydroxy-ethyl)-1H-pyrazolo[3,4-c]pyridin-4-yl]-phenyl}-3-(3-trifluoromethyl-phenyl)-urea], the “Selectivity vs. InsR” value in experiment [1] is given as greater than 50fold. Moreover, the pIC50 in experiment [2] is greater than 6.30.

In the case of `CN1CCN(Cc2ccc(NC(=O)Nc3ccc(-c4cncc5c4cnn5CCO)cc3)cc2C(F)(F)F)CC1` [Example 8.6, 1-{4-[1-(2-Hydroxy-ethyl)-1H-pyrazolo[3,4-c]pyridin-4-yl]-phenyl}-3-[4-(4-methyl-piperazin-1-ylmethyl)-3-trifluoromethyl-phenyl]-urea], in experiment [1], the “Selectivity vs. InsR” value is on record as greater than 50fold. Further, the pIC50 in experiment [2] was greater than 6.30.

`CCn1ncc2c(-c3ccc(NC(=O)Nc4cc(C(F)(F)F)ccc4F)cc3)cncc21` [Example 10.5, 1-[4-(1-Ethyl-1H-pyrazolo[3,4-c]pyridin-4-yl)-phenyl]3-(2-fluoro-5-trifluoromethyl-phenyl)-urea]: in experiment [1], the “Selectivity vs. InsR” value is on record as greater than 50fold. Further, the pIC50 in experiment [2] was greater than 6.30.

As to `CCn1ncc2c(-c3ccc(NC(=O)Nc4cccc(C(F)(F)F)c4)c(F)c3)cncc21` [Example 11.1, 1-[4-(1-Ethyl-1H-pyrazolo[3,4-c]pyridin-4-yl)-2-fluoro-phenyl]-3-(3-trifluoromethyl-phenyl)-urea], in experiment [1], the “Selectivity vs. InsR” value is recorded as greater than 50fold. Besides, the pIC50 in experiment [2] is greater than 6.30.

As for `CCn1ncc2c(-c3ccc(NC(=O)Nc4cc(C(F)(F)F)ccc4F)c(F)c3)cncc21` [Example 11.2, 1-[4-(1-Ethyl-1H-pyrazolo[3,4-c]pyridin-4-yl)-2-fluoro-phenyl]-3-(2-fluoro-5-trifluoromethyl-phenyl)-urea], the “Selectivity vs. InsR” value in experiment [1] was greater than 50fold. Moreover, in experiment [2], the pIC50 is greater than 6.30.
